Measured values from US5302599A, “Therapeutically useful heterocyclic indole compounds” (The Upjohn Company, priority 1992, dated 1994).
Where a name gives a salt, the structure may show the parent alone. Read-outs that look alike come from different tables or passages of the source.

Assays:
[1] = Hypothermia in mice after subcutaneous injection; type: in vivo; settings: 20 min, dose required to depress temperature (2° C.) in two of four mice, Spearman-Karber; for ED50: Mus musculus, sc
Experimental: Hypothermia: Starting with a dose of 30 mg/kg, four mice are injected subcutaneously with test compound. Twenty minutes later, the number of animals whose body temperature has decreased by 2° C. or more are counted. […] The time for last statistically significant drug affect on mean body temperature is indicated in minutes. […] Potency is given as mg/kg ED50 (dose required to depress temperature in two of four mice) as measured by Spearman-Karber statistics.

[2] = molecular target: T1, 5-hydroxytryptamine (HT1A) receptor (Bos taurus, UniProt F6Q2H9); test: Inhibition of 3H-8-OH-DPAT binding in a bovine brain homogenate (5HT1A binding)
T1 construct: from tissue; host or cells: bovine brain homogenate
T1 sequence (F6Q2H9 1-422): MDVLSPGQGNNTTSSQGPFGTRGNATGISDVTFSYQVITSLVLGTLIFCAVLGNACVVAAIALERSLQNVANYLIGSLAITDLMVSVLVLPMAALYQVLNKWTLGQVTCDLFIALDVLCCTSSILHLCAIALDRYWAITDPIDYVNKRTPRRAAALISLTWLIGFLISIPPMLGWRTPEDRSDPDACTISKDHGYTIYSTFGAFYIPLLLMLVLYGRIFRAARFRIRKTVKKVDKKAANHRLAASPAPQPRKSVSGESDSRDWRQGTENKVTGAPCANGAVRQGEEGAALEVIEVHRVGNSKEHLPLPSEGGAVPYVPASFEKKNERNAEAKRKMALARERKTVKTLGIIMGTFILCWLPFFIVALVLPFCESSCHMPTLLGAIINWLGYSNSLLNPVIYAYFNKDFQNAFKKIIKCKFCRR
Excerpt: Binding: Inhibition of 3H-8-OH-DPAT binding in a bovine brain homogenate. Potency is given as nanomole (nM) dose required to inhibit 50% of DPAT binding (IC50). This test measures ability to bind to 5-hydroxytryptamine (HT1A ) receptor.

[3] = molecular target: dopamine D2 receptors (Rattus norvegicus, UniProt P61169); test: biochemical; type: binding
Excerpt: For Dopamine (D2): Inhibition of 3H-raclopride binding in rat striata homogenate. […] This test measures the ability to bind to dopamine D2 receptors.

[4] = read-out: Hypothermia ED50, mice, subcutaneous
[5] = 5HT1A Binding IC50, 3H-8-OH-DPAT
[6] = 3H-raclopride, rat striata homogenate, read-out: Dopamine D2-Receptor Binding IC50
[7] = mice, subcutaneous, read-out: Hypothermia ED50
[8] = 3H-8-OH-DPAT, read-out: 5HT1A Binding IC50

Sequence of dopamine D2 receptors (P61169 whole entry): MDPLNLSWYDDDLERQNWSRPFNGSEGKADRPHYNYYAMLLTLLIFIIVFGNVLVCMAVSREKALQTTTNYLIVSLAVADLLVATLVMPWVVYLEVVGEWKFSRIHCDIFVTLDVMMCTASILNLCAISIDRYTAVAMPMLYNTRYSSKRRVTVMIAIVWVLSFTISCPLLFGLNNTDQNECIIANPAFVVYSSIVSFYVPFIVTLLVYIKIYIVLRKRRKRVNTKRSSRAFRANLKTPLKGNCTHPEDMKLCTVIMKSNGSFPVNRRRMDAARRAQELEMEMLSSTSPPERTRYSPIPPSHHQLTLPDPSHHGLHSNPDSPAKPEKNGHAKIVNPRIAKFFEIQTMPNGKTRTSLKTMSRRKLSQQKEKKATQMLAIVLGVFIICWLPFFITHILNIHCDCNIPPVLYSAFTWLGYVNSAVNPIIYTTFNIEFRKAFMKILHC

Compound `COC(=O)c1cc2c3c(ccc2[nH]1)OCC(CN1CCC2(CC1)C(=O)NCN2c1ccccc1)O3` (stereo not shown) [XIa, 2,3-dihydro-2-((4-oxo-1-phenyl-1,3,8-triazaspiro(4.5)-dec-8-yl)methyl)-7H-1,4-dioxino(2,3-e)indol-8-methyl ester] has an ED50 [1, 4] of 30 mg/kg and an IC50 [2, 5] of 0.47 nM.

Compound `O=C(O)c1cc2c3c(ccc2[nH]1)OCC(CN1CCC2(CC1)C(=O)NCN2c1ccccc1)O3` (stereo not shown) [XIb] has an ED50 [1, 4] of 17.3 mg/kg and an IC50 [2, 5] of 36.3 nM.

`NC(=O)c1cc2c3c(ccc2[nH]1)OCC(CN1CCC2(CC1)C(=O)NCN2c1ccccc1)O3` (stereo not shown) [XIc, 7H-1,4-Dioxino(2,3-e)indole-8-carboxamide, 2,3-dihydro-2-((4-oxo-1-phenyl-1,3,8-triazaspiro(4.5)dec-8-yl)methyl)-] gave an IC50 [2, 5] of 0.29 nM.

For `N#Cc1cc2c3c(ccc2[nH]1)OCC(CN1CCC2(CC1)C(=O)NCN2c1ccccc1)O3` (stereo not shown) [XId, 7H-1,4-Dioxino(2,3-e)indole-8-carbonitrile, 2,3-dihydro-2-((4-oxo-1-phenyl-1,3,8-triazaspiro(4.5)dec-8-yl)methyl)-], the IC50 [3] was 1.53 nM, the ED50 [1, 4] was 0.01 mg/kg and the IC50 [2, 5] was 0.17 nM.

For `CCCCOC(=O)c1cc2c3c(ccc2[nH]1)OCC(CN1CCC2(CC1)C(=O)NCN2c1ccccc1)O3` (stereo not shown) [XIe, 7H-1,4-Dioxino(2,3-e)indole-8-carboxylic acid, 2,3-dihydro-2-((4-oxo-1-phenyl-1,3,8-triazaspiro(4.5)dec-8-yl)methyl)-, butyl ester], the IC50 [2, 5] was 13.5 nM.

`O=C(OCc1ccccc1)c1cc2c3c(ccc2[nH]1)OCC(CN1CCC2(CC1)C(=O)NCN2c1ccccc1)O3` (stereo not shown) [XIf, 7H-1,4-Dioxino(2,3-e)indole-8-carboxylic acid, 2,3-dihydro-2-((4-oxo-1-phenyl-1,3,8-triazaspiro(4.5)dec-8-yl)methyl)-, phenylmethyl ester] showed an IC50 [3, 6] of 190 nM, an ED50 [1, 4] of 17.3 mg/kg and an IC50 [2, 5] of 8.4 nM.

With `COC(=O)c1cc2c3c(ccc2[nH]1)OCC(CN1CCC(n2c(=O)[nH]c4ccccc42)CC1)O3` (stereo not shown) [XIg, 7H-1,4-Dioxino(2,3-e)indole-8-carboxylic acid, 2-((4-(2,3-dihydro-2-oxo-1H-benzimidazol-1-yl)-1-piperidinyl)methyl)-2,3-dihydro-, methyl ester, monohydrochloride] the IC50 [2, 5] was 3.7 nM.

For `CCOC(=O)C1CCN(CC2COc3ccc4[nH]c(C(=O)OC)cc4c3O2)CC1` (stereo not shown) [XIh, 7H-1,4-Dioxino(2,3-e)indole-8-carboxylic acid, 2-((4-(ethoxycarbonyl-1-piperidinyl)methyl)-2,3-dihydro-, methyl ester, monohydrochloride], the IC50 [3, 6] was 147 nM, the ED50 [1, 7] was > 30 mg/kg and the IC50 [2, 8] was 9.6 nM.

Compound `COC(=O)c1cc2c3c(ccc2[nH]1)OCC(CN1CCC(Nc2ccccc2)(C(N)=O)CC1)O3` (stereo not shown) [XIi, 7H-1,4-Dioxino(2,3-e)indole-8-carboxylic acid, 2-((4(aminocarbonyl)-4-(phenylamino)-1-piperidinyl)methyl)-2,3-dihydro-, methyl ester] has an IC50 [2, 5] of 79.3 nM.

Work on `COC(=O)c1cc2c3c(ccc2[nH]1)OCC(CNCCCc1ccccc1)O3` (stereo not shown) [XIj, 7H-1,4-Dioxino(2,3-e)indole-8-carboxylic acid, 2,3-dihydro-2-((3-phenylpropyl)amino)methyl)-, methyl ester, monohydrochloride] yielded an IC50 [3, 6] of 54.6 nM, an ED50 [1, 7] of 1.3 mg/kg and an IC50 [2, 8] of 4 nM.

With `Cl.O=C(NCCCc1ccccc1)c1cc2c3c(ccc2[nH]1)OCC(CNCCCc1ccccc1)O3` (stereo not shown) [XIk, 7H-1,4-Dioxino(2,3-e)indole-8-carboxamide, 2,3-dihydro-N-(3-phenylpropyl)-2-(((3-phenylpropyl)amino)methyl)-, monohydrochloride] the IC50 [3, 6] was 350 nM, the ED50 [1, 7] was > 30 mg/kg and the IC50 [2, 8] was 26 nM.

In the case of `O=C1NCN(c2ccccc2)C12CCN(CC1COc3ccc4[nH]c(CO)cc4c3O1)CC2` (stereo not shown) [XIl, 1,3,8-Triazaspiro(4.5)decan-4-one, 8-((2,3-dihydro-8-(hydroxymethyl)-7H-1,4-dioxino(2,3-e)indol-2-yl)methyl)-1-phenyl-], the IC50 [2, 5] is reported as 2.3 nM.

In the case of `O=C1NCN(c2ccccc2)C12CCN(CC1COc3ccc4[nH]ccc4c3O1)CC2` (stereo not shown) [XIm, 1,3,8-Triazaspiro(4.5)decan-4-one, 8-((2,3-dihydro-7H-1,4-dioxino(2,3-e)indol-2-yl)methyl)-1-phenyl], the IC50 [3] is reported as 0.13 nM and the IC50 [2, 5] is reported as 1 nM.

Work on `C=CCn1c(C(=O)OC)cc2c3c(ccc21)OCC(CN1CCC2(CC1)C(=O)NCN2c1ccccc1)O3` (stereo not shown) [XIn, 7H-1,4-Dioxino(2,3-e)indole-8-carboxylic acid, 2,3-dihydro-2-((4-oxo-1-phenyl-1,3,8-triazaspiro(4.5)dec-8-yl)methyl)-7-(2-propenyl)-, methyl ester] yielded an IC50 [2, 5] of 268 nM.

With `C=CCN1CN(c2ccccc2)C2(CCN(CC3COc4ccc5c(cc(C(=O)OC)n5CC=C)c4O3)CC2)C1=O` (stereo not shown) [XIo, 7H-1,4-Dioxino(2,3-e)indole-8-carboxylic acid, 2,3-dihydro-2-((4-oxo-1-phenyl-3-(2-propenyl)-1,3,8-triazaspiro(4.5)dec-8-yl)methyl)-7-(2-propenyl)-, methyl ester] the IC50 [3] was 97.3 nM and the IC50 [2, 5] was 280 nM.

For `C=CCN1CN(c2ccccc2)C2(CCN(CC3COc4ccc5[nH]c(C(=O)OC)cc5c4O3)CC2)C1=O` (stereo not shown) [XIp, 7H-1,4-Dioxino(2,3-e)indole-8-carboxylic acid, 2,3-dihydro-2-((4-oxo-1-phenyl-3-(2-propenyl)-1,3,8-triazaspiro(4.5)dec-8-yl)methyl)-, methyl ester], the IC50 [2, 5] was 11 nM.

`COC(=O)C1Cc2c(ccc3c2OC(CN2CCC4(CC2)C(=O)NCN4c2ccccc2)CO3)N1` (stereo not shown) [a', 7H-1,4-Dioxino(2,3-e)indole-8-carboxylic acid 2,3,8,9-tetrahydro-2-((4-oxo-1-phenyl-1,3,8-triazaspiro(4.5)dec-8-yl)methyl)-, methyl ester] gave an ED50 [1, 4] of 17.3 mg/kg.

With `O=C(O)c1cc2c3c(ccc2[nH]1)OCC(CN1CCC2(CC1)C(=O)NCN2c1ccccc1)O3` (stereo not shown) [b'] the IC50 [3] was 52.2 nM, the “Hypothermia ED50” value ([1]; mice, subcutaneous) was 30.0 mg/kg and the IC50 [2, 5] was 24.7 nM.
